From paper PMC4249827, “A Novel CMKLR1 Small Molecule Antagonist Suppresses CNS Autoimmune Inflammatory Disease” (PLoS ONE, 2014)
Structures can show the parent of a compound that is named as a salt.

What was measured:
[1] = literature statement; cited from earlier work
huCMKLR1 [2] = target: T1, huCMKLR1 (Homo sapiens, UniProt Q99788); test: β-arrestin2 (β-ARR2) enzymatic complementation assay, CMKLR1/CHO cells; format: cell-based; set-up: host or cells: CHO; conditions: for IC50: mean±SEM, n = 3-14 independent experiments, read-out: IC50 (µM), β-arrestin, huCMKLR1
T1 sequence (Q99788 1-373): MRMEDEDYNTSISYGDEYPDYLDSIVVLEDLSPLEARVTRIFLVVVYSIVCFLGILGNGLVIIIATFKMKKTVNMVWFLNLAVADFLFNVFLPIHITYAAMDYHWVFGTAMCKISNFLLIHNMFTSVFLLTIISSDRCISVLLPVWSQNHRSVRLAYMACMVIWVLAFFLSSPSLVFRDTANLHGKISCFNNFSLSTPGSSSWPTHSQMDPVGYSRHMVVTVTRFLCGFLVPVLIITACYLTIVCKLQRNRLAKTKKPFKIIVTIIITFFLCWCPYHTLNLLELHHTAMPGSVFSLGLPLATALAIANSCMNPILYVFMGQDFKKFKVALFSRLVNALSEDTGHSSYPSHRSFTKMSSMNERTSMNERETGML
From the text: The engagement of a chemoattractant receptor by its cognate ligand stimulates the recruitment of β-arrestin to the carboxyl-terminus of the receptor, an event that results in receptor internalization and termination of G protein-mediated signaling. […] To test this, we used an enzymatic complementation assay (the β-ARR2 assay), whereby the complementary fragments from the β-gal active site are fused to the carboxyl-terminus of CMKLR1 and β-arrestin2. The special association of these molecules leads to enzyme activity, which is detected by a chemiluminescent substrate.

[3] = system: Choline acetyltransferase; conditions: cited from earlier work
huCMKLR1 [4] = target: T1, huCMKLR1; test: Transwell chemotaxis of huCMKLR1/L1.2 transfectants to chemerin
mCMKLR1 = target: T2, mCMKLR1 (Mus musculus, UniProt P97468); test: Transwell chemotaxis of mCMKLR1/L1.2 transfectants to chemerin
T2 sequence (P97468 1-371): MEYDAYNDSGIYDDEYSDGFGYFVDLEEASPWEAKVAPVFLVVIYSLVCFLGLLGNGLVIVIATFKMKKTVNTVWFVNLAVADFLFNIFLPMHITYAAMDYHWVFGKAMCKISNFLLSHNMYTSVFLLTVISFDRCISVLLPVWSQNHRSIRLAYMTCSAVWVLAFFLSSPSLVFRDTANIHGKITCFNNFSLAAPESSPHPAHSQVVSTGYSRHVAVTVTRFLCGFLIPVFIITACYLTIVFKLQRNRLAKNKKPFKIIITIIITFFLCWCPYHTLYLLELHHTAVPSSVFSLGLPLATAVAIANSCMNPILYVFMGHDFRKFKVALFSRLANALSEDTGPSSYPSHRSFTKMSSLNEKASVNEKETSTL

| SMILES | bound by serum proteins [1] | fold less potent than α-NETA (huCMKLR1 [2]; chemerin-stimulated β-ARR2 association with CMKLR1 or CMKLR1+ cell migration) | IC50 (huCMKLR1 [2]) | fold less potent than α-NETA in inhibiting ChAT enzyme activity [3] | IC50 (huCMKLR1 [4]) | IC50 (mCMKLR1) | inhibitory activity in the in vitro assays (huCMKLR1 [2]; β-ARR2 and transwell migration assays) |
| --- | --- | --- | --- | --- | --- | --- | --- |
| COC(=O)/C=C/C(=O)O [monomethyl fumarate] | 30% |  |  |  |  |  |  |
| CN(C)CCC(=O)c1cccc2ccccc12 [α-NEDA, 2-(α-naphthoyl)ethyldimethylamine] |  | 10–20 fold | 7.5 ± 0.74 µM | 7 fold | 77 ± 23 µM | 78 ± 22 µM |  |
| c1ccc2ccccc2c1 [naphthalene, reference compound] |  |  | > 10 µM |  | > 100 µM | > 100 µM | no inhibitory activity |
